Assay results as given in patent publication US20260015350A1, “AZAQUINAZOLINE PAN-KRAS INHIBITORS” (Mirati Therapeutics, Inc., priority 2022, published 2026).

Tests used:
[1] = biological target: T1, KRas^G12C (Homo sapiens, UniProt P01116, G12C); experiment: KRas binding assay (TR-FRET tracer displacement), KRas G12C; conditions: TR-FRET tracer displacement, KRas G12C
T1 construct: Biotinylated KRas (corresponding to amino acids 1-169, produced at Accelegan Inc.); biotin (biotinylated); purchased Accelegan Inc

[2] = test system: KRas-mediated phosphorylation of ERK in MKN1 cells; experiment: Inhibition of KRas-mediated phosphorylation of ERK (Cisbio HTRF pERK), MKN1 cells; format: cell-based; conditions: Homo sapiens, MKN-1
In short: (§1)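 Seeding density was 6,000 cells/well; medium RPMI, 10% FBS. Read-out by homogeneous time-resolved fluorescence (pERK) after 4 hours covered at room temperature.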

[3] = biological target: T2, KRas^WT (Homo sapiens, UniProt P01116); experiment: KRas binding assay (TR-FRET tracer displacement), KRas WT; conditions: TR-FRET tracer displacement, KRas WT
T2 construct: Biotinylated KRas (corresponding to amino acids 1-169, produced at Accelegan Inc.); biotin (biotinylated); purchased Accelegan Inc

[4] = test system: KRas-mediated phosphorylation of ERK in PSN1 cells; experiment: Inhibition of KRas-mediated phosphorylation of ERK (Cisbio HTRF pERK), PSN1 cells; format: cell-based; conditions: Homo sapiens
In short: as §1

[5] = test system: KRas-mediated phosphorylation of ERK in HCT116 cells; experiment: Inhibition of KRas-mediated phosphorylation of ERK (Cisbio HTRF pERK), HCT116 cells; format: cell-based; conditions: Homo sapiens, HCT-116, HTRF pERK
In short: (§2)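 6,000 cells/well; cpd 10 uM top, 3-fold x10, 0.8% DMSO final; 3 hr incubation; Min ctrl Trametinib 0.2 uM; lysis 40 min 4° C shaking; d2 + Cryptate Ab mix, 2 hr RT; HTRF read.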

[6] = test system: KRas-mediated phosphorylation of ERK in H358 cells; experiment: Inhibition of KRas-mediated phosphorylation of ERK (Cisbio HTRF pERK), H358 cells; format: cell-based; conditions: Homo sapiens, NCI-H358, HTRF pERK
In short: (§3)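 Signal read by HTRF (d2/Cryptate antibody pair, 2 hr room-temperature incubation on lysate). Cells: 6,000 per well, 3 hr compound exposure. Titration: 10 uM highest, 3-fold, 10 points.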

[7] = biological target: T3, KRas^G12D (Homo sapiens, UniProt P01116, G12D); experiment: KRas binding assay (TR-FRET tracer displacement), KRas G12D
T3 construct: Biotinylated KRas (corresponding to amino acids 1-169, produced at Accelegan Inc.); biotin (biotinylated); purchased Accelegan Inc

[8] = test system: KRas-mediated phosphorylation of ERK in A549 cells; experiment: Inhibition of KRas-mediated phosphorylation of ERK (Cisbio HTRF pERK), A549 cells; format: cell-based; conditions: Homo sapiens, HTRF pERK
In short: as §2

[9] = test system: KRas-mediated phosphorylation of ERK in H460 cells; experiment: Inhibition of KRas-mediated phosphorylation of ERK (Cisbio HTRF pERK), H460 cells; format: cell-based; conditions: Homo sapiens, NCI-H460, HTRF pERK
In short: as §3

[10] = biological target: T4, KRas^G12S (Homo sapiens, UniProt P01116, G12S); experiment: KRas binding assay (TR-FRET tracer displacement), KRas G12S; conditions: TR-FRET tracer displacement, KRas G12S
T4 construct: Biotinylated KRas (corresponding to amino acids 1-169, produced at Accelegan Inc.); biotin (biotinylated); purchased Accelegan Inc

[11] = test system: KRas-mediated phosphorylation of ERK in AsPC-1 cells; experiment: Inhibition of KRas-mediated phosphorylation of ERK (Cisbio HTRF pERK), AsPC-1 cells; format: cell-based; conditions: Homo sapiens, ASPC1, AsPC-1 cells; HTRF pERK
In short: as §3

[12] = biological target: T5, KRas^G12V (Homo sapiens, UniProt P01116, G12V); experiment: KRas binding assay (TR-FRET tracer displacement), KRas G12V
T5 construct: Biotinylated KRas (corresponding to amino acids 1-169, produced at Accelegan Inc.); biotin (biotinylated); purchased Accelegan Inc

[13] = test system: KRas-mediated phosphorylation of ERK in H727 cells; experiment: Inhibition of KRas-mediated phosphorylation of ERK (Cisbio HTRF pERK), H727 cells; format: cell-based; conditions: Homo sapiens, NCI-H727, H727 cells; HTRF pERK
In short: as §3

T1 sequence (P01116 1-169 isoform P01116-2 G12C): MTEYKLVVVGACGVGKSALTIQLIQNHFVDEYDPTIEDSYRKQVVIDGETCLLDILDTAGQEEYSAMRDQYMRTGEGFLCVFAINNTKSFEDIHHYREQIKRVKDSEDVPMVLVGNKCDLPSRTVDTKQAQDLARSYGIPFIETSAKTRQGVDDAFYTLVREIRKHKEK
T2 sequence (P01116 1-169 isoform P01116-2): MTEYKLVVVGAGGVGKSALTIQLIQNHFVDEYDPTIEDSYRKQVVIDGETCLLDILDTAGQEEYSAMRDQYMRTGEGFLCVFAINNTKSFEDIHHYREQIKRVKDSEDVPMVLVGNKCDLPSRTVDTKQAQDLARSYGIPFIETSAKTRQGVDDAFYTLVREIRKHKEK
T3 sequence (P01116 1-169 isoform P01116-2 G12D): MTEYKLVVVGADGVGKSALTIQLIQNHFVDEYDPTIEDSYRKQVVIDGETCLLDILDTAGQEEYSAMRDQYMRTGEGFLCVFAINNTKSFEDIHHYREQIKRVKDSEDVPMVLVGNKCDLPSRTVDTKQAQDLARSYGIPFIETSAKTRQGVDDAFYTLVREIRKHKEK
T4 sequence (P01116 1-169 isoform P01116-2 G12S): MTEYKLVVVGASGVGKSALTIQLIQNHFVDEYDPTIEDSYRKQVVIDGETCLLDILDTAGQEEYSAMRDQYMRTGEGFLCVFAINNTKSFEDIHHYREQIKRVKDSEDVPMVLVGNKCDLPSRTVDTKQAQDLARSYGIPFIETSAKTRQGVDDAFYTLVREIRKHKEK
T5 sequence (P01116 1-169 isoform P01116-2 G12V): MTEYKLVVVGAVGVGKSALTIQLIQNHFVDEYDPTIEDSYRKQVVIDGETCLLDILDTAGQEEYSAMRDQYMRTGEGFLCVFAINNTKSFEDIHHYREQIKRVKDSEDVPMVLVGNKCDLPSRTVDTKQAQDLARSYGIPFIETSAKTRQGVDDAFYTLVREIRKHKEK

SMILES | IC50 [1] [nM] | IC50 [2] [nM] | IC50 [3] [nM] | IC50 [4] [nM] | IC50 [5] [nM] | IC50 [6] [nM] | IC50 [7] [nM] | IC50 [8] [nM] | IC50 [9] [nM] | IC50 [10] [nM] | IC50 [11] [nM] | IC50 [12] [nM] | IC50 [13] [nM]
CCc1c(F)ccc2cc(O)cc(-c3ncc4c(N5CCC[C@@](C)(O)C5)nc(OC[C@@]56CCCN5CC(=C(F)F)C6)nc4c3F)c12 (single isomer, unassigned) [Example 918] | < 2 | 1 | < 2 | 490 | 12 | 3 | < 2 | 4 | 5 | < 2 | 3 | < 2 | 17
CCc1c(F)ccc2cc(O)cc(-c3ncc4c(N5CCC[C@@](C)(O)C5)nc(OC[C@]56CCCN5CC(=C(F)F)C6)nc4c3F)c12 (single isomer, unassigned) [Example 919] | < 2 | 3 | < 2 | 2480 | 37 | 14 | < 2 | 19 | 10 | < 2 | 14 | < 2 | 43
C=C1CN2CCCC2(COc2nc(N3CCCC(C)(O)C3)c3cnc(-c4cc(O)cc5ccc(F)c(CC)c45)c(F)c3n2)C1 (stereo in doubt) [Example 797, (3R)-1-(7-(8-ethyl-7-fluoro-3-hydroxynaphthalen-1-yl)-8-fluoro-2-((2-methylenetetrahydro-1H-pyrrolizin-7a(5H)-yl)methoxy)pyrido[4,3-d]pyrimidin-4-yl)-3-methylpiperidin-3-ol] | < 2 | – | < 2 | 296 | 10 | 1 | < 2 | 3 | 3 | < 2 | 1 | < 2 | 4
C[C@@H]1C[C@@H]1c1c(Cl)cc(O)cc1-c1ncc2c(N3C[C@@H]4C[C@H](C3)[C@H](O)C4)nc(OC[C@@]34CCCN3C[C@H](F)C4)nc2c1F (stereo in doubt) [Example 920, (1R,5R,6R)-3-(7-(3-chloro-5-hydroxy-2-(cis-2-methylcyclopropyl)phenyl)-8-fluoro-2-(((2R,7aS)-2-fluorotetrahydro-1H-pyrrolizin-7a(5H)-yl)methoxy)pyrido[4,3-d]pyrimidin-4-yl)-3-azabicyclo[3.2.1]octan-6-ol] | < 2 | 4 | 2 | 2060 | 44 | 12 | 4 | 19 | 15 | < 2 | 77 | < 2 | 42
CCc1c(F)ccc2cc(O)cc(-c3ncc4c(N5C[C@@H]6C[C@H](C5)[C@H](O)C6)nc(OCC56CC(F)CN5CC(F)C6)nc4c3F)c12 (stereo partly drawn) [Example 923, (1R,5R,6R)-3-(2-((2,6-difluorotetrahydro-1H-pyrrolizin-7a(5H)-yl)methoxy)-7-(8-ethyl-7-fluoro-3-hydroxynaphthalen-1-yl)-8-fluoropyrido[4,3-d]pyrimidin-4-yl)-3-azabicyclo[3.2.1]octan-6-ol] | 7 | 9 | 8 | > 10000 | – | – | 18 | – | – | 5 | 365 | 4 | 125
CCc1c(F)ccc2cc(O)cc(-c3ncc4c(N5C[C@@H]6C[C@H](C5)[C@H](O)C6)nc(OCC56CCCN5CC(F)(F)C6)nc4c3F)c12 (stereo partly drawn) [Example 924, (1R,5R,6R)-3-(2-((2,2-difluorotetrahydro-1H-pyrrolizin-7a(5H)-yl)methoxy)-7-(8-ethyl-7-fluoro-3-hydroxynaphthalen-1-yl)-8-fluoropyrido[4,3-d]pyrimidin-4-yl)-3-azabicyclo[3.2.1]octan-6-ol] | 7 | 14 | 7 | > 10000 | – | – | 14 | – | – | 5 | 262 | 4 | 118
CCc1c(F)ccc2cc(O)cc(-c3ncc4c(N5C[C@@H]6C[C@H](C5)[C@H](O)C6)nc(OC[C@@]56CCCN5C[C@@H](OC)C6)nc4c3F)c12 [Example 925, (1R,5R,6R)-3-(7-(8-ethyl-7-fluoro-3-hydroxynaphthalen-1-yl)-8-fluoro-2-(((2S,7aS)-2-methoxytetrahydro-1H-pyrrolizin-7a(5H)-yl)methoxy)pyrido[4,3-d]pyrimidin-4-yl)-3-azabicyclo[3.2.1]octan-6-ol] | 4 | 9 | 3 | > 10000 | – | – | 6 | – | – | 3 | 826 | 2 | 302

Continued, values first:

IC50 [1] [nM] | IC50 [2] [nM] | IC50 [3] [nM] | IC50 [4] [nM] | IC50 [5] [nM] | IC50 [6] [nM] | IC50 [7] [nM] | IC50 [8] [nM] | IC50 [9] [nM] | IC50 [10] [nM] | IC50 [11] [nM] | IC50 [12] [nM] | IC50 [13] [nM] | SMILES
< 2 | 17 | < 2 | 397 | 137 | 14 | 2 | 84 | 41 | < 2 | 60 | < 2 | 163 | C[C@@H]1C[C@@H]1c1c(Cl)cc(O)cc1-c1ncc2c(N3CCCC4(CNS(=O)(=O)N4)C3)nc(OC[C@@]34CCCN3C[C@H](F)C4)nc2c1F (stereo in doubt) [Example 929, 7-(7-(3-chloro-5-hydroxy-2-(cis-2-methylcyclopropyl)phenyl)-8-fluoro-2-(((2R,7aS)-2-fluorotetrahydro-1H-pyrrolizin-7a(5H)-yl)methoxy)pyrido[4,3-d]pyrimidin-4-yl)-2-thia-1,3,7-triazaspiro[4.5]decane 2,2-dioxide]
< 2 | 0.7 | < 2 | 3000 | – | – | 2 | – | – | < 2 | 66 | < 2 | 29 | CCc1c(F)ccc2cc(O)cc(-c3ncc4c(N5C[C@@H]6C[C@H](C5)[C@H](O)C6)nc(OC[C@@]56CCCN5C[C@H](OC)C6)nc4c3F)c12 [Example 926, (1R,5R,6R)-3-(7-(8-ethyl-7-fluoro-3-hydroxynaphthalen-1-yl)-8-fluoro-2-(((2R,7aS)-2-methoxytetrahydro-1H-pyrrolizin-7a(5H)-yl)methoxy)pyrido[4,3-d]pyrimidin-4-yl)-3-azabicyclo[3.2.1]octan-6-ol]
7 | 17 | 6 | > 10000 | – | – | 13 | – | – | 5 | 468 | 4 | 202 | CCc1c(F)ccc2cc(O)cc(-c3ncc4c(N5C[C@@H]6C[C@H](C5)[C@H](O)C6)nc(OC[C@@]56CCCN5C[C@@H](F)C6)nc4c3F)c12 [Example 927, (1R,5R,6R)-3-(7-(8-ethyl-7-fluoro-3-hydroxynaphthalen-1-yl)-8-fluoro-2-(((2S,7aS)-2-fluorotetrahydro-1H-pyrrolizin-7a(5H)-yl)methoxy)pyrido[4,3-d]pyrimidin-4-yl)-3-azabicycle[3.2.1]octan-6-ol]
< 2 | 3 | < 2 | 2840 | – | – | 2 | – | – | < 2 | 74 | < 2 | 33 | CCc1c(F)ccc2cc(O)cc(-c3ncc4c(N5C[C@@H]6C[C@H](C5)[C@H](O)C6)nc(OCC56CCCN5C(C)CC6)nc4c3F)c12 (stereo partly drawn) [Example 928, (1R,5R,6R)-3-(7-(8-ethyl-7-fluoro-3-hydroxynaphthalen-1-yl)-8-fluoro-2-((3-methyltetrahydro-1H-pyrrolizin-7a(5H)-yl)methoxy)pyrido[4,3-d]pyrimidin-4-yl)-3-azabicyclo[3.2.1]octan-6-ol]
